The record followed here is patent publication US20170204092A1, “4,5-DIHYDROISOXAZOLE DERIVATIVES AS NAMPT INHIBITORS” (AURIGENE DISCOVERY TECHNOLOGIES LIMITED, priority 2014, published 2017).

The target in data set [1] is T1, recombinant NAMPT wild type protein (Homo sapiens, UniProt P43490).
T1 construct: made in house; host or cells: E. coli
Kind of data set: NAMPT fluorescence assay. Conditions: 50 ng NAMPT, 2 μM Nam, 10 point dose response; read-out: Fluorescence assay IC50 in range. The class given is biochemical. How it is done: The enzymatic assay was standardized using in-house recombinant NAMPT wild type protein from E. coli expression & NAM (Cat #47865-U) as a substrate. The product NMN formed after enzymatic reaction was derivatized to a fluorescent derivative through sequentially reacting with acetophenone/KOH and formic acid. The derivatized fluorescent NMN derivative was detected at 382 nm excitation wavelength and a 445 nm emission wavelength. […] The fluorescence was measured (Excitation at 382 nm & Emission at 445 nm) using Victor^3 V fluorimeter. The data is calculated using the RFU values. The final concentration of DMSO was 2% in the assay. Each individual IC50 was determined using 10 point dose response curve generated by GraphPad Prism software Version 4 (San Diego, Calif., USA) using nonlinear regression curve fit for sigmoidal dose response (variable slope).

For a further data set, the system named is MiaPaCa-2 cells. In words: Cytotoxicity assay in MiaPaCa-2 (XTT, 72 h). Conditions: for IC50: XTT, read-out: Cell cytotoxicity assay IC50 in range. The class given is cell-based. How it is done: MiaPaCa-2 Cells (ATCC) were seeded in 96 well plates (Costar clear flat bottom) at a density of 3000 cells/well and allowed to settle overnight. Test compounds were dissolved in dimethyl sulphoxide (DMSO-Sigma Aldrich, D2650) and incubated with MiaPaCa-2 cells for 72 h. Post 72 h, 50 μl XTT (1 mg/mL; Invitrogen, X 6493) and PMS ([…]; Sigma Aldrich, P9625) reagents were added to the cells in 100 μl of cDMEM (Sigma Aldrich-D5648)+10% FBS (Hyclone-5430088-03)+1×Pen Strep (Sigma Aldrich-P0781). After 1 hour incubation with XTT and PMS absorbance was monitored with Spectramax M3 (Molecular Device). Percentage inhibition of proliferation at 10 μM and 1 μM concentrations was calculated by considering DMSO control as 0% inhibition. IC50 values were plotted using Graph pad prism software (Graph pad Inc, La Jola, Calif., USA).
(In general: Tetrazolium assays rely on reduction of a dye to a coloured formazan, in cell work by metabolically active cells.)

Setting [2] is: 1 μM, DMSO control = 0% inhibition.
[3] abbreviates: 10 μM, DMSO control = 0% inhibition.

Each structure is given as a SMILES string. Read-outs that look alike come from different tables or passages of the source.

T1 sequence (P43490 whole entry): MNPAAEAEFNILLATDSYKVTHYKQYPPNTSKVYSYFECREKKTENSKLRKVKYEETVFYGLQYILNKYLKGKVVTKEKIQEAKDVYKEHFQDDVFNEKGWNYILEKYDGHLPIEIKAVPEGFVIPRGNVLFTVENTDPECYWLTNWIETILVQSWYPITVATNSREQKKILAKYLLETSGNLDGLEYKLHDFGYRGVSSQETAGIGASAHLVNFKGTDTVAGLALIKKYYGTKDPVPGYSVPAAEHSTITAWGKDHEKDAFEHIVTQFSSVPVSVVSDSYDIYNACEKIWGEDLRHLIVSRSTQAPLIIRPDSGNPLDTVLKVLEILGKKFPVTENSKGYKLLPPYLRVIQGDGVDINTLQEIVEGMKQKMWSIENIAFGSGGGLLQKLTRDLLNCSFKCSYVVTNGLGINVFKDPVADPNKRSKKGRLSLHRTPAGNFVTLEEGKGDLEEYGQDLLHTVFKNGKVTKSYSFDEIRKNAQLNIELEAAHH

By IC50 is commonly meant the midpoint of a concentration-inhibition curve. Turning to `Cc1ccc(OCC2CC(CNC(=O)c3ccc4nccn4c3)=NO2)c(-c2ccc(F)nc2)n1` (single isomer, unassigned) [Example 12b, N-((5-(((6′-fluoro-6-methyl-[2,3′-bipyridin]-3-yl)oxy)methyl)-4,5-dihydroisoxazol-3-yl)methyl)imidazo[1,2-a]pyridine-6-carboxamide], the 50% inhibitory concentration (IC50) is 10 to 25 nM in data set [1] and < 50 nM in the data set with MiaPaCa-2 cells. Also, the “Cell cytotoxicity assay (% Inhibition at 1 μM)” value in the data set on MiaPaCa-2 cells (setting [2]) is on record as 100%. Moreover, the “Cell cytotoxicity assay (% Inhibition at 10 μM)” value with MiaPaCa-2 cells (setting [3]) was determined as 100%.
With `O=C(NCC1=NOC(COc2cccnc2-c2ccc(F)nc2)C1)c1ccc2nccn2c1` (single isomer, unassigned) [Example 4b, N-((5-(((6′-fluoro-[2,3′-bipyridin]-3-yl)oxy)methyl)-4,5-dihydroisoxazol-3-yl)methyl)imidazo[1,2-a]pyridine-6-carboxamide], the results for the concentration for half-maximal inhibition (IC50) (in data set [1]; with MiaPaCa-2 cells) were < 10 nM and < 50 nM, respectively. For the same compound, in the data set on MiaPaCa-2 cells (setting [2]), the “Cell cytotoxicity assay (% Inhibition at 1 μM)” value came out at 95%. The “Cell cytotoxicity assay (% Inhibition at 10 μM)” value in the data set on MiaPaCa-2 cells (setting [3]) was determined as 94%.
The corresponding values for `Cc1cnc(-c2ccc(F)nc2)c(OCC2CC(CNC(=O)c3ccc4nccn4c3)=NO2)c1` (single isomer, unassigned) [Example 11b, N-((5-(((6′-fluoro-5-methyl-[2,3′-bipyridin]-3-yl)oxy)methyl)-4,5-dihydroisoxazol-3-yl)methyl)imidazo[1,2-a]pyridine-6-carboxamide] are 10 to 25 nM, < 50 nM, 100% and 98%.
The term inhibition denotes the share of the control response that was lost under treatment. Turning to `O=C(NCC1=NOC(COc2cccnc2-c2ccc(F)nc2)C1)Nc1ccncc1` (racemic) [Example 17, 1-((5-(((6′-fluoro-[2,3′-bipyridin]-3-yl)oxy)methyl)-4,5-dihydroisoxazol-3-yl)methyl)-3-(pyridin-4-yl)urea], the 50% inhibitory concentration (IC50) was < 10 nM in data set [1] and < 50 nM in the data set with MiaPaCa-2 cells (Homo sapiens, MIA PaCa-2, 72 h). The inhibition at 1 µM in the data set with MiaPaCa-2 cells (Homo sapiens, MIA PaCa-2, 72 h, 1 μM, DMSO control = 0% inhibition, read-out: Cell cytotoxicity assay (% Inhibition at 1 μM)) came to 90%. Also, the inhibition at 10 µM in the data set with MiaPaCa-2 cells (Homo sapiens, MIA PaCa-2, 72 h, 10 μM, DMSO control = 0% inhibition, read-out: Cell cytotoxicity assay (% Inhibition at 10 μM)) is 89%.
